Data: publication PMC8480593, “Anti-influenza A virus activity and structure–activity relationship of a series of nitrobenzoxadiazole derivatives” (Journal of Enzyme Inhibition and Medicinal Chemistry, 2021)
Like-named read-outs stand apart in the source and are kept apart here.

Tests used:
[1] = tested on: influenza virus A/Puerto Rico/8/34 H1N1 (PR8); test: microbe, parasite or virus in culture; type: cell-based
MDCK cells = test: Cytotoxicity on MDCK cells (MTT and Trypan Blue exclusion); conditions: 1–30 µM, Toxic = toxic at all tested concentrations
[2] = tested on: influenza virus A/Puerto Rico/8/34 H1N1 (PR8); test: microbe, parasite or virus in culture; conditions: unidentified influenza virus, A549, read-out: IC50, ICW – A549
[3] = tested on: influenza virus A/Puerto Rico/8/34 H1N1 (PR8); conditions: A549 cells; CC50 from Cell Tag in mock infected cells, IC50 by ICW
[4] = tested on: influenza virus A/Puerto Rico/8/34 H1N1 (PR8); test: microbe, parasite or virus in culture; conditions: H1N1|PR8, A549, read-out: IC50, HAU – A549
[5] = tested on: influenza virus A/Puerto Rico/8/34 H1N1 (PR8); conditions: A549 cells, CC50 by Trypan Blue exclusion
in vitro = conditions: human
[6] = MDCK cells infected with PR8 (m.o.i. 0.001), HAU in supernatants 24 h p.i., Inactive = at maximum tested concentration (30 µM)
[7] = unidentified influenza virus, MDCK, 24 h, read-out: IC50 (concentration required to inhibit viral replication of 50%), MDCK cells infected with PR8 (m.o.i. 0.001), HAU in supernatants 24 h p.i., Inactive = at maximum tested concentration (30 µM)

Compound	IC50 (concentration required to inhibit viral replication of 50%) [1, 6]	IC50 [1, 7]	further results
O=C(O)c1cccc(Sc2ccc([N+](=O)[O-])c3nonc23)c1 [Compound 28]	Inactive^b	> 30 µM	–
O=C(O)Cc1ccc(Sc2ccc([N+](=O)[O-])c3nonc23)cc1 [Compound 39]	Inactive^b	> 30 µM	–
O=[N+]([O-])c1ccc(Sc2nc3ccccc3[nH]2)c2nonc12 [Compound 23, 4-((1H-benzo[d]imidazol-2-yl)thio)-7-nitrobenzo[c][1,2,5]oxadiazole]	Inactive^b	> 30 µM	melting point: 206 to 208 °C
O=C(CCSc1ccc([N+](=O)[O-])c2nonc12)NCCO [Compound 14]	Inactive^b	> 30 µM	–
CN(C)C(=O)c1ccc(Sc2ccc([N+](=O)[O-])c3nonc23)cc1 [Compound 32]	–	> 30 µM	–
O=C(O)CCC(=O)OCCCCSc1ccc([N+](=O)[O-])c2nonc12 [Compound 9, 4–(4-((7-nitrobenzo[c][1,2,5]oxadiazol-4-yl)thio)butoxy)-4-oxobutanoic acid]	–	17.1 ± 0.9 µM	IC50 (concentration required to inhibit viral replication of 50%) [1]: effective against IV; melting point: 90 to 93 °C
O=C(O)c1ccc(CSc2ccc([N+](=O)[O-])c3nonc23)cc1 [Compound 41]	–	10.8 ± 0.6 µM	IC50 (concentration required to inhibit viral replication of 50%) [1]: effective against IV
CC(=O)N[C@@H](CSc1ccc([N+](=O)[O-])c2nonc12)C(=O)O [Compound 19, N-acetyl-S-(7-nitrobenzo[c][1,2,5]oxadiazol-4-yl)cysteine]	–	24 ± 2.3 µM	IC50 (concentration required to inhibit viral replication of 50%) [1]: effective against IV; melting point: 166 to 168 °C
CCOC(=O)c1ccc(CSc2ccc([N+](=O)[O-])c3nonc23)cc1 [Compound 42]	–	17.2 ± 1.6 µM	–
O=[N+]([O-])c1ccc(Sc2ncccn2)c2nonc12 [Compound 22, 4-nitro-7-(pyrimidin-2-ylthio)benzo[c][1,2,5]oxadiazole]	–	–	melting point: 144 to 147 °C
O=C1CCN(C(=O)CCSc2ccc([N+](=O)[O-])c3nonc23)CC1 [Compound 16]	–	–	Cytotoxicity (MDCK cells): Toxic^a
O=[N+]([O-])c1ccc(SCc2ccccc2)c2nonc12 [Compound 25]	–	< 10 µM	IC50 (concentration required to inhibit viral replication of 50%) [1]: effective against IV; IC50 ([1]; read-out: IC50 (concentration required to inhibit viral replication of 50%), MDCK cells infected with PR8 (m.o.i. 0.001), HAU in supernatants 24 h p.i., Inactive = at maximum tested concentration (30 µM)): 6.3 ± 0.5 µM; IC50 [2]: 8.9 ± 0.6 µM; SI (CC50/IC50 ICW – A549) [3]: 4; IC50 [4]: 1.9 ± 0.1 µM; SI (CC50/IC50 HAU – A549) [5]: 6
COC(=O)CCSc1ccc([N+](=O)[O-])c2nonc12 [Compound 12]	–	–	CC50 at 24 h (in vitro): 54.5 µM; IC50 (concentration required to inhibit viral replication of 50%) [1]: effective against IV; IC50 [2]: 10 ± 0.5 µM; SI (CC50/IC50 ICW – A549) [3]: 5; IC50 [4]: 5.1 ± 0.2 µM; SI (CC50/IC50 HAU – A549) [5]: 11
O=C(O)CCC(=O)OCCOCCSc1ccc([N+](=O)[O-])c2nonc12 [Compound 11, 4–(2–(2-((7-nitrobenzo[c][1,2,5]oxadiazol-4-yl)thio)ethoxy)ethoxy)-4-oxobutanoic acid]	–	> 30 µM	IC50 (concentration required to inhibit viral replication of 50%) [1]: effective against IV; melting point: 74 to 76 °C
COC(=O)C(CSc1ccc([N+](=O)[O-])c2nonc12)NC(=O)OC(C)(C)C (stereo not shown) [Compound 17]	–	–	IC50 (concentration required to inhibit viral replication of 50%) [1]: effective against IV; IC50 [2]: 9.6 ± 0.8 µM; SI (CC50/IC50 ICW – A549) [3]: 3; IC50 [4]: 11.7 ± 1 µM; SI (CC50/IC50 HAU – A549) [5]: 2
O=[N+]([O-])c1ccc(S(=O)(=O)CCCCCCO)c2nonc12 [Compound 44]	Inactive^b	> 30 µM	–
O=C(O)c1ccccc1Sc1ccc([N+](=O)[O-])c2nonc12 [Compound 27]	Inactive^b	> 30 µM	–
O=C(NCCO)c1ccc(Sc2ccc([N+](=O)[O-])c3nonc23)cc1 [Compound 37]	Inactive^b	> 30 µM	–
O=[N+]([O-])c1ccc(NCCCCCCO)c2nonc12 [Compound 45]	Inactive^b	> 30 µM	Cytotoxicity (MDCK cells): NOT toxic
O=C(O)CCc1ccc(Sc2ccc([N+](=O)[O-])c3nonc23)cc1 [Compound 40]	–	18.3 ± 1.6 µM	IC50 (concentration required to inhibit viral replication of 50%) [1]: effective against IV
O=[N+]([O-])c1ccc([S+]([O-])CCCCCCO)c2nonc12 (stereo not shown) [Compound 43]	Inactive^b	> 30 µM	–
CC(C)(C)Sc1ccc([N+](=O)[O-])c2nonc12 [Compound 21]	Inactive^b	> 30 µM	–
O=[N+]([O-])c1ccc(SCCCCCCCCO)c2nonc12 [Compound 6]	–	> 30 µM	–
O=C(O)CCC(=O)OCCCCCCSc1ccc([N+](=O)[O-])c2nonc12 [Compound 10]	–	22.2 ± 1.4 µM	–
CCOC(=O)c1ccc(Sc2ccc([N+](=O)[O-])c3nonc23)cc1 [Compound 30]	Inactive^b	> 30 µM	–
NC(=O)c1ccc(Sc2ccc([N+](=O)[O-])c3nonc23)cc1 [Compound 31]	Inactive^b	> 30 µM	–
O=C(NO)c1ccc(Sc2ccc([N+](=O)[O-])c3nonc23)cc1 [Compound 33]	Inactive^b	> 30 µM	–
CN(C)CCNC(=O)c1ccc(Sc2ccc([N+](=O)[O-])c3nonc23)cc1 [Compound 38]	Inactive^b	> 30 µM	–
